The structures appear in SMILES notation.

As a reminder, the IC50 is the concentration needed to halve the response being measured.

Chain of recombinant full length HPK-1 enzyme (Q92918 whole entry, species assumed): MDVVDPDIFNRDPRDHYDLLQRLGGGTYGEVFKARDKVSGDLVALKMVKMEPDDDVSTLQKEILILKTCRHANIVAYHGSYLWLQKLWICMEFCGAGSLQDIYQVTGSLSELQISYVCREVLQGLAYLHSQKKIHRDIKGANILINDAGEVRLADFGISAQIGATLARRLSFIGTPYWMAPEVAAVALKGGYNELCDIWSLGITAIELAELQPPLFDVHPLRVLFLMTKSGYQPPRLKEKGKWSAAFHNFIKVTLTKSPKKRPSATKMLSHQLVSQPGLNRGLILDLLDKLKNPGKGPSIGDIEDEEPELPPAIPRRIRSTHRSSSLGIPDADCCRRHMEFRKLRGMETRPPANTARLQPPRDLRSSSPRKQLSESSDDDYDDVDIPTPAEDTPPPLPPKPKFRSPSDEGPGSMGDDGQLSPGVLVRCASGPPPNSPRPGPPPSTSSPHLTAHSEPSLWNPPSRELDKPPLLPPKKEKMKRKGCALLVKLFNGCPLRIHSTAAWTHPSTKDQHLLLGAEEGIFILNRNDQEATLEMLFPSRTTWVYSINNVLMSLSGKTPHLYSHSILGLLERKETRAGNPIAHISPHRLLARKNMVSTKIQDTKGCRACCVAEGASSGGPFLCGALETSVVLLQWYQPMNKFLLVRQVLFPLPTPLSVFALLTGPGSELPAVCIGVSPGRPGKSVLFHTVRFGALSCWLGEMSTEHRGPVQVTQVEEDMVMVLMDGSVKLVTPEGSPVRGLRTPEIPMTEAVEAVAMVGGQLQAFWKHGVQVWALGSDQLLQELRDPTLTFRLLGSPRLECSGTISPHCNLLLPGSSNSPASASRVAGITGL

This test has as its target recombinant full length HPK-1 enzyme (Homo sapiens (Human), UniProt Q92918). Kind of test: HPK-1 biochemical enzyme assay (ADP-Glo kinase inhibition). Conditions: recombinant full length HPK-1 6.8 nM, 10 μM ATP, 12.5 μM MBP, 30 mins at 25° C. Here is the method: HPK-1 biochemical enzyme assay
Compound inhibitory potency was measured in an HPK-1 kinase inhibition assay. Briefly, recombinant full length HPK-1 enzyme (6.8 nM) was incubated with 10 μM ATP and 12.5 μM swine myelin basic protein (MBP) for 30 mins. at 25° C. in the presence of various concentrations of test compound or vehicle in 40 mM Tris.Cl pH7.4 buffer containing 20 mM MgCl2, 50 μM DTT and 0.1 mg/mL BSA. Reactions were quenched and reaction mixtures were then analyzed by an ADP-Glo kit which measures the formed ADP. The percent inhibition was calculated from the substrate conversion considering no enzyme control reactions for 100% inhibition and vehicle only reactions for 0% inhibition. The compounds were dissolved in DMSO and evaluated at 10 concentrations to determine an IC50 value.
In the below table A denotes an HPK-1 IC50≤10 nM, B denotes an HPK-1 IC50>10 nM but≤100 nM and C denotes an HPK-1 IC50>100 nM but≤1000 nM.
A general note: ADP-Glo first removes unused ATP, then detects ADP through luciferase.
For `Cc1c(Nc2cc[nH]c(=O)c2C(=O)Nc2ccc(N3CCN(C4CCCC4)CC3)cc2)cnc2c1NCCO2` [Example 147, N-(4-(4-cyclopentylpiperazin-1-yl)phenyl)-4-((8-methyl-2,3-dihydro-1H-pyrido[2,3-b][1,4]oxazin-7-yl)amino)-2-oxo-1,2-dihydropyridine-3-carboxamide], the IC50 was at most 0.01 µM.

For `Cc1c(Nc2cc[nH]c(=O)c2C(=O)Nc2ccc(-c3cccnc3)cc2)cnc2c1NCCO2` [Example 151, 4-((8-methyl-2,3-dihydro-1H-pyrido[2,3-b][1,4]oxazin-7-yl)amino)-2-oxo-N-(4-(pyridin-3-yl)phenyl)-1,2-dihydropyridine-3-carboxamide], the IC50 fell in the range of 0.01 to 0.1 µM.

As to `Cc1c(Nc2cc[nH]c(=O)c2C(=O)Nc2ccc(-c3ccncc3)cc2)cnc2c1NCCO2` [Example 152, 4-((8-methyl-2,3-dihydro-1H-pyrido[2,3-b][1,4]oxazin-7-yl)amino)-2-oxo-N-(4-(pyridin-4-yl)phenyl)-1,2-dihydropyridine-3-carboxamide], the IC50 is 0.01 to 0.1 µM.

For the compound `Cc1c(Nc2cc[nH]c(=O)c2C(=O)Nc2ccc(N3CCCC(N)C3)cc2)cnc2c1NCCO2` (stereo not drawn) [Example 153, N-(4-(3-aminopiperidin-1-yl)phenyl)-4-((8-methyl-2,3-dihydro-1H-pyrido[2,3-b][1,4]oxazin-7-yl)amino)-2-oxo-1,2-dihydropyridine-3-carboxamide], the half-maximal inhibitory concentration (IC50) is at most 0.01 µM.

`Cc1c(Nc2cc[nH]c(=O)c2C(=O)Nc2ccc(N3CCC(N)CC3)cc2)cnc2c1NCCO2` [Example 154, N-(4-(4-aminopiperidin-1-yl)phenyl)-4-((8-methyl-2,3-dihydro-1H-pyrido[2,3-b][1,4]oxazin-7-yl)amino)-2-oxo-1,2-dihydropyridine-3-carboxamide]: the IC50 is at most 0.01 µM.

`Cc1c(Nc2cc[nH]c(=O)c2C(=O)Nc2ccc(N3CCN(CCO)CC3)cc2)cnc2c1NCC(C)O2` (stereo not drawn) [Example 156, 4-((3,8-dimethyl-2,3-dihydro-1H-pyrido[2,3-b][1,4]oxazin-7-yl)amino)-N-(4-(4-(2-hydroxyethyl)piperazin-1-yl)phenyl)-2-oxo-1,2-dihydropyridine-3-carboxamide]: the IC50 was in the range of 0.01 to 0.1 µM.

On to `Cc1c(Nc2cc[nH]c(=O)c2C(=O)Nc2ccc(N3CCC(F)(F)CC3)cc2)cnc2c1NCCO2` [Example 161, N-(4-(4,4-difluoropiperidin-1-yl)phenyl)-4-((8-methyl-2,3-dihydro-1H-pyrido[2,3-b][1,4]oxazin-7-yl)amino)-2-oxo-1,2-dihydropyridine-3-carboxamide], for which the IC50 lay in the range of 0.01 to 0.1 µM.

For `Cc1c(Nc2cc[nH]c(=O)c2C(=O)Nc2ccc(N3CC4CCC(C3)N4C)cc2)cnc2c1NCCO2` [Example 162, 4-((8-methyl-2,3-dihydro-1H-pyrido[2,3-b][1,4]oxazin-7-yl)amino)-N-(4-(8-methyl-3,8-diazabicyclo[3.2.1]octan-3-yl)phenyl)-2-oxo-1,2-dihydropyridine-3-carboxamide], the IC50 is at most 0.01 µM.

In the case of `Cc1c(Nc2cc[nH]c(=O)c2C(=O)Nc2ccc3c(c2)CN(C)CC3)cnc2c1NCCO2` [Example 163, N-(2-Methyl-1,2,3,4-tetrahydroisoquinolin-7-yl)-4-((8-methyl-2,3-dihydro-1H-pyrido[2,3-b][1,4]oxazin-7-yl)amino)-2-oxo-1,2-dihydropyridine-3-carboxamide], the half-inhibitory concentration (IC50) fell in the range of 0.01 to 0.1 µM.

As to `Cc1c(Nc2cc[nH]c(=O)c2C(=O)Nc2ccc(N3CCN(C)CC3)cc2)cnc2c1NCC(C)O2` (stereo not drawn) [Example 164, 4-((3,8-dimethyl-2,3-dihydro-1H-pyrido[2,3-b][1,4]oxazin-7-yl)amino)-N-(4-(4-methylpiperazin-1-yl)phenyl)-2-oxo-1,2-dihydropyridine-3-carboxamide], the IC50 lay in the range of 0.01 to 0.1 µM.

As to `Cc1c(Nc2cc[nH]c(=O)c2C(=O)Nc2ccc(N3CCN(C)CC3)cc2)cnc2c1NCC(C)O2` (stereo not drawn) [Example 165, 4-((3,8-dimethyl-2,3-dihydro-1H-pyrido[2,3-b][1,4]oxazin-7-yl)amino)-N-(4-(4-methylpiperazin-1-yl)phenyl)-2-oxo-1,2-dihydropyridine-3-carboxamide], the half-inhibitory concentration (IC50) is at most 0.01 µM.

In the case of `Cc1c(Nc2cc[nH]c(=O)c2C(=O)Nc2ccc(N3CCN(C4CC4)CC3)cc2)cnc2c1NCCO2` [Example 167, N-(4-(4-Cyclopropylpiperazin-1-yl)phenyl)-4-((8-methyl-2,3-dihydro-1H-pyrido[2,3-b][1,4]oxazin-7-yl)amino)-2-oxo-1,2-dihydropyridine-3-carboxamide], the IC50 is at most 0.01 µM.

Consider `Cc1c(Nc2cc[nH]c(=O)c2C(=O)Nc2ccc3c(c2)OCC2CN(C)CCN32)cnc2c1NCCO2` (stereo not drawn) [Example 168, N-(3-Methyl-1,2,3,4,4a,5-hexahydrobenzo[b]pyrazino[1,2-d][1,4]oxazin-8-yl)-4-((8-methyl-2,3-dihydro-1H-pyrido[2,3-b][1,4]oxazin-7-yl)amino)-2-oxo-1,2-dihydropyridine-3-carboxamide], for which the half-inhibitory concentration (IC50) was at most 0.01 µM.

Regarding `Cc1c(Nc2cc[nH]c(=O)c2C(=O)Nc2ccc(N3CCN(C(C)C)CC3)cc2)cnc2c1NCC(C)O2` (stereo not drawn) [Example 169, 4-((3,8-dimethyl-2,3-dihydro-1H-pyrido[2,3-b][1,4]oxazin-7-yl)amino)-N-(4-(4-isopropylpiperazin-1-yl)phenyl)-2-oxo-1,2-dihydropyridine-3-carboxamide], the IC50 was at most 0.01 µM.

As to `Cc1c(Nc2cc[nH]c(=O)c2C(=O)Nc2ccc(N3CCN(CC(C)O)CC3)cc2)cnc2c1NCCO2` (stereo not drawn) [Example 170, N-(4-(4-(2-hydroxypropyl)piperazin-1-yl)phenyl)-4-((8-methyl-2,3-dihydro-1H-pyrido[2,3-b][1,4]oxazin-7-yl)amino)-2-oxo-1,2-dihydropyridine-3-carboxamide], the IC50 was at most 0.01 µM.

Consider `COCCN1CCN(c2ccc(NC(=O)c3c(Nc4cnc5c(c4C)NCC(C)O5)cc[nH]c3=O)cc2)CC1` (stereo not drawn) [Example 171, 4-((3,8-dimethyl-2,3-dihydro-1H-pyrido[2,3-b][1,4]oxazin-7-yl)amino)-N-(4-(4-(2-methoxyethyl)piperazin-1-yl)phenyl)-2-oxo-1,2-dihydropyridine-3-carboxamide], for which the half-maximal inhibitory concentration (IC50) was at most 0.01 µM.

In the case of `Cc1c(Nc2cc[nH]c(=O)c2C(=O)Nc2ccc(N3CCN(C)CC3)cc2)cnc2c1NCC(C)(C)O2` [Example 172, N-(4-(4-methylpiperazin-1-yl)phenyl)-2-oxo-4-((3,3,8-trimethyl-2,3-dihydro-1H-pyrido[2,3-b][1,4]oxazin-7-yl)amino)-1,2-dihydropyridine-3-carboxamide], the concentration for half-maximal inhibition (IC50) lay in the range of 0.01 to 0.1 µM.

On to `COCCN1CCN(c2ccc(NC(=O)c3c(Nc4cnc5c(c4C)NCC(C)(C)O5)cc[nH]c3=O)cc2)CC1` [Example 173, N-(4-(4-(2-methoxyethyl)piperazin-1-yl)phenyl)-2-oxo-4-((3,3,8-trimethyl-2,3-dihydro-1H-pyrido[2,3-b][1,4]oxazin-7-yl)amino)-1,2-dihydropyridine-3-carboxamide], for which the IC50 fell in the range of 0.01 to 0.1 µM.

On to `Cc1c(Nc2cc[nH]c(=O)c2C(=O)Nc2ccc(N3CCN(Cc4ccn[nH]4)CC3)cc2)cnc2c1NCCO2` [Example 174, N-(4-(4-((1H-pyrazol-5-yl)methyl)piperazin-1-yl)phenyl)-4-((8-methyl-2,3-dihydro-1H-pyrido[2,3-b][1,4]oxazin-7-yl)amino)-2-oxo-1,2-dihydropyridine-3-carboxamide], for which the IC50 is at most 0.01 µM.

With `Cc1c(Nc2cc[nH]c(=O)c2C(=O)Nc2ccc(N3CCN(CCCO)CC3)cc2)cnc2c1NCCO2` [Example 175, N-(4-(4-(3-hydroxypropyl)piperazin-1-yl)phenyl)-4-((8-methyl-2,3-dihydro-1H-pyrido[2,3-b][1,4]oxazin-7-yl)amino)-2-oxo-1,2-dihydropyridine-3-carboxamide], the half-inhibitory concentration (IC50) was at most 0.01 µM.

In the case of `Cc1c(Nc2cc[nH]c(=O)c2C(=O)Nc2ccc(N3CCN(CC4CCC(=O)N4)CC3)cc2)cnc2c1NCCO2` (stereo not drawn) [Example 176, 4-((8-methyl-2,3-dihydro-1H-pyrido[2,3-b][1,4]oxazin-7-yl)amino)-2-oxo-N-(4-(4-((5-oxopyrrolidin-2-yl)methyl)piperazin-1-yl)phenyl)-1,2-dihydropyridine-3-carboxamide], the IC50 was at most 0.01 µM.

Turning to `Cc1c(Nc2cc[nH]c(=O)c2C(=O)Nc2ccc(N3CCN(C(C)C)CC3)cc2)cnc2c1NCC(C)(C)O2` [Example 177, N-(4-(4-isopropylpiperazin-1-yl)phenyl)-2-oxo-4-((3,3,8-trimethyl-2,3-dihydro-1H-pyrido[2,3-b][1,4]oxazin-7-yl)amino)-1,2-dihydropyridine-3-carboxamide], the half-inhibitory concentration (IC50) was at most 0.01 µM.

Turning to `Cc1c(Nc2cc[nH]c(=O)c2C(=O)Nc2ccc(N3CCN(CCC#N)CC3)cc2)cnc2c1NCCO2` [Example 178, N-(4-(4-(2-cyanoethyl)piperazin-1-yl)phenyl)-4-((8-methyl-2,3-dihydro-1H-pyrido[2,3-b][1,4]oxazin-7-yl)amino)-2-oxo-1,2-dihydropyridine-3-carboxamide], the IC50 is at most 0.01 µM.

As for `Cc1c(Nc2cc[nH]c(=O)c2C(=O)Nc2ccc(N3CCN(C4CCC4)CC3)cc2)cnc2c1NCCO2` [Example 179, N-(4-(4-cyclobutylpiperazin-1-yl)phenyl)-4-((8-methyl-2,3-dihydro-1H-pyrido[2,3-b][1,4]oxazin-7-yl)amino)-2-oxo-1,2-dihydropyridine-3-carboxamide], the IC50 was at most 0.01 µM.

The record behind these values is US20250282794A1 (CURADEV PHARMA LTD, priority 2022, published 2025).
